Here are results for 1 substance from patent publication US20240335364A1, “COMPOSITIONS OF DICAFFEOYLQUINIC ACIDS WITH TOCOPHEROL” (SYMRISE AG, priority 2021, published 2024).

The test system of one assay is HSPB2. In words: Modulation of HSPB2 gene expression of keratinocytes (real-time qPCR, RQ). It is filed as cell-based, human. Set-up: key: relative quantity vs DMSO vehicle control (qPCR). The settings on record: nHEK, 24 h, 0.005% alone; Example 4. The method, then:
(§1) Neonatal human epidermal keratinocytes (nHEK) were cultivated in an EpiLife® medium (Gibco) including an HKGS kit (Gibco) with 5% CO2 at 37° C. in accordance with the supplier's instructions. The cells were treated for 24 hours, with 0.0005% of the different dicaffeoylquinic acids from above dissolved in DMSO and DMSO alone as the vehicle control. Genomic target expression levels in treated cells were measured using a quantitative Real-Time PCR comparison to vehicle control treatment.
(§2) RNA was isolated using Qiagen's RNeasy® Mini Kit. The total RNA concentrations were measured using Eppendorf's μCuvetteG 1.0 and BioPhotometer, by measuring the absorption at 260 nm. Purity control values such as E260/280 and E260/230 were calculated simultaneously. Reverse transcription was performed using the high-capacity RNA-to-cDNA kit of Applied Biosystems, in accordance with the supplier's instructions. Samples were treated in Biometra's PCR Thermocycler. For fast real-time qPCR, the cDNA was diluted with RNase-free water, and the TaqMan™ Fast Universal PCR Master Mix of Applied Biosystems was used. Quantitative real time PCR was performed using the StepOnePlus fast real-time PCR instrument by Applied Biosystems. Analysis was conducted using the StepOne software and […] (normalised to endogenous control […] expression). For upregulations, RQ values ≥2.5 are considered to be relevant.
(§3) Neonatal human epidermal keratinocytes (nHEK) were cultivated as described in Example 1 and treated for 24 hours with 0.0007% of the different monocaffeoylquinic acids. Afterwards fast real-time qPCR was performed as described in above using a customised gene array.
(§4) Neonatal human epidermal keratinocytes (nHEK) were cultivated as described in Example 1 and treated for 24 hours with 4,5-dicaffeoylquinic acid (CAS number 14534-61-3, Phytolab GmbH & Co. KG) and (±)-α-tocopherol (CAS number 10191-41-0, synonym: Synonym: DL-α-Tocopherol, Vitamin E, Sigma-Aldrich, synthetic) alone and in combination. Afterwards fast real-time qPCR was performed as described in above using a customised gene array.
(§5) [formula] • With • A=RQ value by 4,5-dicaffeoylquinic acid at concentration x • B=RQ value by tocopherol at concentration y • C=RQ value by the combination of 4,5-dicaffeoylquinic acid at concentration x/2 and tocopherol at concentration y/2 • D=Factor for 4,5-dicaffeoylquinic acid=>0.5 (due to half concentration tested in the combination) • E=Factor for tocopherol=>0.5 (due to half concentration tested in the combination) • A SI=1 is obtained for additive activity of the two combined components, whereas a SI <1 proves antagonistic activity (observed efficacy is lower than additive) and SI >1 proves synergistic activity (observed efficacy is higher than additive).
(§6) Neonatal human epidermal keratinocytes (nHEK) were cultivated as described above and treated for 24 hours with yarrow extract of example 3 (Achillea millefolium, freeze-dried fresh press juice of flowering aerials, cultivated in Germany) and (±)-α-tocopherol (CAS number 10191-41-0, synonym: Synonym: DL-α-Tocopherol, Vitamin E, Sigma-Aldrich, synthetic) alone and in two combinations. Afterwards fast real-time qPCR was performed as described in above using a customised gene array.

A further assay relates to HSPB8. Description: Modulation of HSPB8 gene expression of keratinocytes (real-time qPCR, RQ). Format: cell-based, human. On the set-up: key: RQ: expression relative to DMSO vehicle control (qPCR). The settings on record: nHEK, 24 h. The method, then:
as §1, §2, §3
(§7) Neonatal human epidermal keratinocytes (nHEK) were cultivated as described in Example 1 and treated for 24 hours with 0.005% of the extract samples. Afterwards fast real-time qPCR was performed as described in above using a customized gene array.
as §4, §5, §6

Another assay has as its system CRYAB. In words: Modulation of CRYAB gene expression of keratinocytes (real-time qPCR, RQ). Format: cell-based, human. Set-up: key: relative quantity (RQ) vs DMSO vehicle-treated control. Particulars: nHEK, 24 h. On the procedure:
as §1, §2, §3, §7, §4, §5
Neonatal human epidermal keratinocytes (nHEK) were cultivated as described above and treated for 24 hours with 3,5-dicaffeoylquinic acid (CAS number 2450-53-5, Phytolab GmbH & Co. KG) and D-α-tocopherol (CAS number 59-02-9, synonym: (+)-α-tocopherol, Vitamin E, trade name: Copherol® F 1300 C, BTC Europe GmbH) alone and in combination. Afterwards fast real-time qPCR was performed as described in above using a customised gene array.
(§8) Neonatal human epidermal keratinocytes (nHEK) were cultivated as described above and treated for 24 hours with yarrow extract of example 3 (Achillea millefolium, freeze-dried fresh press juice of flowering aerials, cultivated in Germany) and (±)-α-tocopherol (CAS number 10191-41-0, synonym: Synonym: DL-α-Tocopherol, Vitamin E, Sigma-Aldrich, synthetic) alone and in two combinations. Afterwards fast real-time qPCR was performed as described in above using a customised gene array. […]
(In general: Real-time PCR tracks product formation cycle by cycle.)

The next assay has as its system CLDN1. Description: Modulation of CLDN1 gene expression of keratinocytes (real-time qPCR, RQ). Format: cell-based, human. The settings on record: nHEK, 24 h. On the procedure:
as §1, §2, §3, §7, §4, §5
(§9) Neonatal human epidermal keratinocytes (nHEK) were cultivated as described in Example 1 and treated for 24 hours with 3,4-dicaffeoylquinic acid (CAS number 57378-72-0, Phytolab GmbH & Co. KG) and (+)-α-tocopherol (CAS number 59-02-9, synonym: Synonym: D-α-tocopherol, Vitamin E, Sigma-Aldrich) alone and in combination. Afterwards fast real-time qPCR was performed as described in above using a customised gene array. For upregulations, RQ values ≥2.5 are considered to be relevant.
as §6

The test system of another assay is OCLN. Description: Modulation of OCLN gene expression of keratinocytes (real-time qPCR, RQ). Format: cell-based, human. On the set-up: key: RQ: expression relative to DMSO vehicle control (qPCR). Particulars: nHEK, 24 h. On the procedure: as §1, §2, §3, §7, §4, §5, §6
For the next assay, the system named is DEFB1. In words: Modulation of DEFB1 gene expression of keratinocytes (real-time qPCR, RQ). Set-up: key: RQ = expression relative to DMSO vehicle control (qPCR). The settings on record: nHEK, 24 h. Format: cell-based, human. On the procedure:
as §1, §2, §3, §4, §5, §6
Neonatal human epidermal keratinocytes (nHEK) were cultivated as described above and treated for 24 hours with yarrow extract of example 3 (Achillea millefolium, freeze-dried fresh press juice of flowering aerials, cultivated in Germany) and (+)-α-tocopherol (CAS number 59-02-9, synonym: Synonym: D-α-tocopherol, Vitamin E, Sigma-Aldrich) alone and in combination. Afterwards fast real-time qPCR was performed as described in above using a customised gene array.

A further assay has as its system DSC1. Description: Modulation of DSC1 gene expression of keratinocytes (real-time qPCR, RQ). It is filed as cell-based, human. On the set-up: key: RQ: expression relative to DMSO vehicle control. Particulars: nHEK, 24 h. The method, then: as §1, §2, §3, §7, §4, §5, §9, §8
The next assay deals with DSG1. In words: Modulation of DSG1 gene expression of keratinocytes (real-time qPCR, RQ). Format: cell-based, human. Set-up: key: relative quantity vs DMSO vehicle control (qPCR). Particulars: nHEK, 24 h. On the procedure: as §1, §2, §3, §7, §4, §5, §9
Neonatal human epidermal keratinocytes (nHEK) were cultivated as described above and treated for 24 hours with 3,5-dicaffeoylquinic acid (CAS number 2450-53-5, Phytolab GmbH & Co. KG) and D-α-tocopherol (CAS number 59-02-9, synonym: (+)-α-tocopherol, Vitamin E, trade name: Copherol® F 1300 C, BTC Europe GmbH) alone and in combination. Afterwards fast real-time qPCR was performed as described in above using a customised gene array. […]

The test system of assay [1] is Neonatal human epidermal keratinocytes (nHEK). In words: Modulation of gene expression of keratinocytes, whole gene array (statements in words). It is filed as cell-based. The settings on record: 24 h, tocopherol alone at 0.005%. On the procedure: as §1, §2, §3, §7
The mark [2] stands for this setting: 0.005% tocopherol alone, Example 7, Table 9.
Setting [3] is: 0.005% tocopherol alone, Example 7, Table 10.

On to (±)-α-tocopherol [(±)-alpha-tocopherol], for which the “RQ value HSPB2” value with HSPB2 is recorded as 1.4. For the same substance, the “RQ value HSPB8” value is listed as 1.0 with HSPB8 (0.005% alone, Example 4); 1.2 in the assay with HSPB8 (setting [2]); 2.3 in the assay on HSPB8 (setting [3]). The “RQ value CRYAB” value in the assay with CRYAB (0.005% alone, Example 4) is 1.4; with CRYAB (setting [2]), 1.3. Besides, the “RQ value CLDN1” value with CLDN1 (0.005% alone, Example 4) is 1.2; in the assay with CLDN1 (setting [2]) it was 1.3; in the assay on CLDN1 (setting [3]), 1.8. In addition, the “RQ value OCLN” value with OCLN (0.005% alone, Example 4) was determined as 1.7; in the assay on OCLN (setting [2]) it was 2.4. Besides, the “RQ value DEFB1” value in the assay with DEFB1 (0.005% alone, Example 4) came to 1.3; in the assay on DEFB1 (setting [2]) it was 1.7. Also, the “RQ value DSC1” value in the assay with DSC1 (0.005% alone, Example 4) was found to be 1.1; with DSC1 (setting [2]), 1.3; with DSC1 (setting [3]), 1.9. The “RQ value DSG1” value in the assay on DSG1 (0.005% alone, Example 4) amounted to 1.3; in the assay on DSG1 (setting [2]) it was 1.4; with DSG1 (setting [3]) it was 2.0. Besides, the “relevant modulation of the selected genes (RQ ≥2.5)” value in assay [1] is listed as “does not relevantly modulate any of the selected genes”.
